Tested on: KM-20L2 human colorectal adenocarcinoma
Test: KM-20L2 xenograft model: growth of established KM-20L2 human colorectal tumors in athymic nude mice (tumor volume/weight, % T/C, Fa, Combination Index)
Assay type: in vivo

huCBE11: humanized anti-LT-β-R agonist antibody (LTβ receptor-activating mAb), described in WO 02/30986
Median Effect Dose (Combined (1:0.63 huCBE11:Camptosar), dose of the labelled agent in the combination, Day 13): 10.7 mg/kg | Median Effect Dose (Combined (1:0.63 huCBE11:Camptosar), dose of the labelled agent in the combination, Day 16): 2.6 mg/kg | Median Effect Dose (Combined (1:0.63 huCBE11:Camptosar), dose of the labelled agent in the combination, Day 20): 1.0 mg/kg | Median Effect Dose (Combined (1:0.63 huCBE11:Camptosar), dose of the labelled agent in the combination, Day 23): 1.1 mg/kg | Median Effect Dose (Combined (1:0.63 huCBE11:Camptosar), dose of the labelled agent in the combination, Day 27): 1.5 mg/kg | Median Effect Dose (Combined (1:0.63 huCBE11:Camptosar), dose of the labelled agent in the combination, Day 30): 1.8 mg/kg | Median Effect Dose (Combined (1:0.63 huCBE11:Camptosar), dose of the labelled agent in the combination, Day 34): 1.8 mg/kg | Median Effect Dose (Combined (1:0.63 huCBE11:Camptosar), dose of the labelled agent in the combination, Day 37): 1.6 mg/kg | Median Effect Dose (Combined (1:0.63 huCBE11:Camptosar), dose of the labelled agent in the combination, Day 41): 1.5 mg/kg | Median Effect Dose (Given Separately, Day 13): 174 mg/kg | Median Effect Dose (Given Separately, Day 16): 981 mg/kg | Median Effect Dose (Given Separately, Day 20): 32.7 mg/kg | Median Effect Dose (Given Separately, Day 23): 9.0 mg/kg | Median Effect Dose (Given Separately, Day 27): 2.1 mg/kg | Median Effect Dose (Given Separately, Day 30): 3.8 mg/kg | Median Effect Dose (Given Separately, Day 34): 3.6 mg/kg | Median Effect Dose (Given Separately, Day 37): 6.6 mg/kg | Median Effect Dose (Given Separately, Day 41): 3.0 mg/kg | Median Effect Dose (Given Separately; Day 16): 2077 mg/kg | Median Effect Dose (Given Separately; Day 20): 9.5 mg/kg | Median Effect Dose (Given Separately; Day 23): 4.8 mg/kg | Median Effect Dose (Given Separately; Day 27): 3.3 mg/kg | Median Effect Dose (Given Separately; Day 30): 3.8 mg/kg | Median Effect Dose (Given Separately; Day 34): 3.2 mg/kg | Median Effect Dose (Given Separately; Day 37): 2.7 mg/kg | Median Effect Dose (Given Separately; Day 41): 2.4 mg/kg | Median Effect Dose (Given Separately; Day 43): 2.4 mg/kg | Median Effect Dose (dose of the labelled agent when huCBE11 and Gemcitabine Combined (4:5); Day 16): 3.6 mg/kg | Median Effect Dose (dose of the labelled agent when huCBE11 and Gemcitabine Combined (4:5); Day 20): 1.3 mg/kg | Median Effect Dose (dose of the labelled agent when huCBE11 and Gemcitabine Combined (4:5); Day 23): 0.6 mg/kg | Median Effect Dose (dose of the labelled agent when huCBE11 and Gemcitabine Combined (4:5); Day 27): 0.7 mg/kg | Median Effect Dose (dose of the labelled agent when huCBE11 and Gemcitabine Combined (4:5); Day 30): 0.6 mg/kg | Median Effect Dose (dose of the labelled agent when huCBE11 and Gemcitabine Combined (4:5); Day 34): 0.6 mg/kg | Median Effect Dose (dose of the labelled agent when huCBE11 and Gemcitabine Combined (4:5); Day 37): 0.4 mg/kg | Median Effect Dose (dose of the labelled agent when huCBE11 and Gemcitabine Combined (4:5); Day 41): 0.6 mg/kg | Median Effect Dose (dose of the labelled agent when huCBE11 and Gemcitabine Combined (4:5); Day 43): 0.4 mg/kg | % T/C (hCBE11 2 mg/kg; Days 41 to 55): ≤ 42% | % T/C (hCBE11 4 mg/kg; Days 50 and 55): ≤ 42% | Mean Fraction Affected (Fa) (huCBE11 0.2 mg/kg alone, Day 9): −0.026 | Mean Fraction Affected (Fa) (huCBE11 0.2 mg/kg alone, Day 13): 0.003 | Mean Fraction Affected (Fa) (huCBE11 0.2 mg/kg alone, Day 16): 0.125 | Mean Fraction Affected (Fa) (huCBE11 0.2 mg/kg alone, Day 20): 0.249 | Mean Fraction Affected (Fa) (huCBE11 0.2 mg/kg alone, Day 23): 0.294 | Mean Fraction Affected (Fa) (huCBE11 0.2 mg/kg alone, Day 27): 0.377 | Mean Fraction Affected (Fa) (huCBE11 0.2 mg/kg alone, Day 30): 0.369 | Mean Fraction Affected (Fa) (huCBE11 0.2 mg/kg alone, Day 34): 0.345 | Mean Fraction Affected (Fa) (huCBE11 0.2 mg/kg alone, Day 37): 0.372 | Mean Fraction Affected (Fa) (huCBE11 0.2 mg/kg alone, Day 41): 0.381 | Mean Fraction Affected (Fa) (huCBE11 0.2 mg/kg; Day 9): 0.063 | Mean Fraction Affected/Fraction Unaffected (Fa/Fu) (huCBE11 0.2 mg/kg; Day 9): 0.067 | Mean Tumor Volume (huCBE11 0.2 mg/kg; Day 9): 104.8 cubic mm | Mean Tumor Volume Decrease (huCBE11 0.2 mg/kg; Day 9): 7.0 cubic mm | Mean Fraction Affected (Fa) (huCBE11 0.2 mg/kg; Day 13): 0.071 | Mean Fraction Affected/Fraction Unaffected (Fa/Fu) (huCBE11 0.2 mg/kg; Day 13): 0.076 | Mean Tumor Volume (huCBE11 0.2 mg/kg; Day 13): 160.4 cubic mm | Mean Tumor Volume Decrease (huCBE11 0.2 mg/kg; Day 13): 12.2 cubic mm | Mean Fraction Affected (Fa) (huCBE11 0.2 mg/kg; Day 16): 0.055 | Mean Fraction Affected/Fraction Unaffected (Fa/Fu) (huCBE11 0.2 mg/kg; Day 16): 0.058 | Mean Tumor Volume (huCBE11 0.2 mg/kg; Day 16): 250.5 cubic mm | Mean Tumor Volume Decrease (huCBE11 0.2 mg/kg; Day 16): 14.5 cubic mm | Mean Fraction Affected (Fa) (huCBE11 0.2 mg/kg; Day 20): 0.073 | Mean Fraction Affected/Fraction Unaffected (Fa/Fu) (huCBE11 0.2 mg/kg; Day 20): 0.078 | Mean Tumor Volume (huCBE11 0.2 mg/kg; Day 20): 371.9 cubic mm | Mean Tumor Volume Decrease (huCBE11 0.2 mg/kg; Day 20): 29.1 cubic mm | Mean Fraction Affected (Fa) (huCBE11 0.2 mg/kg; Day 23): 0.016 | Mean Fraction Affected/Fraction Unaffected (Fa/Fu) (huCBE11 0.2 mg/kg; Day 23): 0.016 | Mean Tumor Volume (huCBE11 0.2 mg/kg; Day 23): 518.7 cubic mm | Mean Tumor Volume Decrease (huCBE11 0.2 mg/kg; Day 23): 8.5 cubic mm | Mean Fraction Affected/Fraction Unaffected (Fa/Fu) (huCBE11 0.2 mg/kg; Day 27): −0.008 | Mean Tumor Volume (huCBE11 0.2 mg/kg; Day 27): 673.8 cubic mm | Mean Tumor Volume Decrease (huCBE11 0.2 mg/kg; Day 27): −5.2 cubic mm | Mean Fraction Affected (Fa) (huCBE11 0.2 mg/kg; Day 30): 0.030 | Mean Fraction Affected/Fraction Unaffected (Fa/Fu) (huCBE11 0.2 mg/kg; Day 30): 0.030 | Mean Tumor Volume (huCBE11 0.2 mg/kg; Day 30): 792.1 cubic mm | Mean Tumor Volume Decrease (huCBE11 0.2 mg/kg; Day 30): 24.1 cubic mm | Mean Fraction Affected (Fa) (huCBE11 0.2 mg/kg; Day 34): 0.118 | Mean Fraction Affected/Fraction Unaffected (Fa/Fu) (huCBE11 0.2 mg/kg; Day 34): 0.134 | Mean Tumor Volume (huCBE11 0.2 mg/kg; Day 34): 926.4 cubic mm | Mean Tumor Volume Decrease (huCBE11 0.2 mg/kg; Day 34): 123.9 cubic mm | Mean Fraction Affected (Fa) (huCBE11 0.2 mg/kg; Day 37): 0.132 | Mean Fraction Affected/Fraction Unaffected (Fa/Fu) (huCBE11 0.2 mg/kg; Day 37): 0.152 | Mean Tumor Volume (huCBE11 0.2 mg/kg; Day 37): 1048.5 cubic mm | Mean Tumor Volume Decrease (huCBE11 0.2 mg/kg; Day 37): 159.5 cubic mm | Mean Fraction Affected (Fa) (huCBE11 0.2 mg/kg; Day 41): 0.120 | Mean Fraction Affected/Fraction Unaffected (Fa/Fu) (huCBE11 0.2 mg/kg; Day 41): 0.137 | Mean Tumor Volume (huCBE11 0.2 mg/kg; Day 41): 1266.0 cubic mm | Mean Tumor Volume Decrease (huCBE11 0.2 mg/kg; Day 41): 173.4 cubic mm | Mean Fraction Affected (Fa) (huCBE11 0.2 mg/kg; Day 43): 0.096 | Mean Fraction Affected/Fraction Unaffected (Fa/Fu) (huCBE11 0.2 mg/kg; Day 43): 0.107 | Mean Tumor Volume (huCBE11 0.2 mg/kg; Day 43): 1452.0 cubic mm | Mean Tumor Volume Decrease (huCBE11 0.2 mg/kg; Day 43): 154.7 cubic mm | Mean Fraction Affected (Fa) (huCBE11 2 mg/kg alone, Day 9): 0.101 | Mean Fraction Affected (Fa) (huCBE11 2 mg/kg alone, Day 13): 0.137 | Mean Fraction Affected (Fa) (huCBE11 2 mg/kg alone, Day 16): 0.322 | Mean Fraction Affected (Fa) (huCBE11 2 mg/kg alone, Day 20): 0.458 | Mean Fraction Affected (Fa) (huCBE11 2 mg/kg alone, Day 23): 0.497 | Mean Fraction Affected (Fa) (huCBE11 2 mg/kg alone, Day 27): 0.542 | Mean Fraction Affected (Fa) (huCBE11 2 mg/kg alone, Day 30): 0.524 | Mean Fraction Affected (Fa) (huCBE11 2 mg/kg alone, Day 34): 0.541 | Mean Fraction Affected (Fa) (huCBE11 2 mg/kg alone, Day 37): 0.485 | Mean Fraction Affected (Fa) (huCBE11 2 mg/kg alone, Day 41): 0.541 | % T/C, lowest observed (huCBE11 2 mg/kg and 4 mg/kg; dose ranging study): > 42%

From patent publication US20060134102A1, “Lymphotoxin beta receptor agents in combination with chemotherapeutic agents” (Biogen Idec MA Inc., priority 2002, published 2006)
